Assay results from publication PMC2883612 (Journal of nuclear medicine : official publication, Society …, 2009).

What was measured:
[1] = cited from earlier work
[2] = Pharmacologic effects and safety tests in human subjects after PET; format: in vivo
TSPO [3] = conditions: rat model of neurodegeneration; cited from earlier work
[4] = Plasma metabolite analysis and plasma input function; format: in vivo; conditions: human; for metabolites in plasma radioactivity: 30 min after injection; for plasma clearance time constant: monoexponential fitting from 20 to 60 min
TSPO [5] = conditions: in vivo; cited from earlier work
TSPO [6] = molecular target: TSPO (Homo sapiens, UniProt P30536); assay: Brain PET with arterial input, compartmental modeling; conditions: 1-tissue model, mean ± SD
TSPO (Homo sapiens, UniProt P30536), sequence (P30536 whole entry): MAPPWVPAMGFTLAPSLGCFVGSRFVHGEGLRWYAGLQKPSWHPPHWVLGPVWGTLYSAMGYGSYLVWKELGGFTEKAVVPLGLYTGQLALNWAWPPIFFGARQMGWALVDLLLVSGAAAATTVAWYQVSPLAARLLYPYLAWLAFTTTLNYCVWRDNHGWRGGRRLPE

Structure (SMILES): CCN(CC)C(=O)Cc1c(-c2ccc(OC)cc2)nn2c(C)cc(C)nc12 [^11C-DPA-713, ^11C-N,N-diethyl-2-[2-(4-methoxyphenyl)-5,7-dimethyl-pyrazolo[1,5-a]pyrimidin-3-yl]-acetamide]
- logP [1]: 2.4
- blood tests before and after the scan ([2]; healthy human subjects): no abnormalities or interval changes
- side effects after the PET scans ([2]; healthy human subjects): No side effects were reported
- pharmacologic effects ([2]; healthy human subjects, intravenous bolus): No pharmacologic effects were noted
- 12-lead ECGs ([2]; within 1 wk before and after injection): no abnormalities or interval changes
- specificity in discriminating between normal and lesioned brain, vs ^11C-R-PK11195 (TSPO [3]): greater specificity
- metabolites in plasma radioactivity [4]: 20%
- plasma clearance time constant [4]: 42 min

Structure (SMILES): CCC(C)N(C)C(=O)c1cc2ccccc2c(-c2ccccc2Cl)n1 (stereo not shown) [^11C-R-PK11195]
- metabolites in plasma radioactivity [4]: 40%
- plasma clearance time constant [4]: 37 min
- blocking effect on ^11C-DPA-713 brain uptake (TSPO [5]): potent blockade of brain uptake
- K1 value (TSPO [6]; Caudate): 0.020 ± 0.012 (24.9)
- VT value (TSPO [6]; Caudate): 0.25 ± 0.09 (23.1)
- K1 value (TSPO [6]; Cerebellar cortex): 0.025 ± 0.016 (12.5)
- VT value (TSPO [6]; Cerebellar cortex): 0.32 ± 0.08 (11.9)
- K1 value (TSPO [6]; Frontal): 0.023 ± 0.013 (14.6)
- VT value (TSPO [6]; Frontal): 0.33 ± 0.10 (13.9)
- K1 value (TSPO [6]; Pons): 0.019 ± 0.016 (23.1)
- VT value (TSPO [6]; Pons): 0.42 ± 0.13 (33.3)
- K1 value (TSPO [6]; Putamen): 0.026 ± 0.015 (10.3)
- VT value (TSPO [6]; Putamen): 0.34 ± 0.06 (9.5)
- K1 value (TSPO [6]; Temporal): 0.016 ± 0.011 (22.0)
- VT value (TSPO [6]; Temporal): 0.40 ± 0.08 (29.4)
- K1 value (TSPO [6]; Thalamus): 0.025 ± 0.013 (12.0)
- VT value (TSPO [6]; Thalamus): 0.42 ± 0.07 (11.9)
